{
  "source": "patent US20170007561A1",
  "about": "“CONTEMPORANEOUS, HETEROGENEOUSLY-ORIENTED, MULTI-TARGETED THERAPEUTIC MODIFICATION AND/OR MODULATION OF DISEASE BY ADMINISTRATION OF SULFUR-CONTAINING, AMINO ACID-SPECIFIC SMALL MOLECULES” (BioNumerik Pharmaceuticals, Inc., priority 2014, published 2017)",
  "key": {"recombinant human Prx 1": {"target": "recombinant human Prx 1 (Homo sapiens, UniProt Q06830)", "sequence (Q06830 whole entry)": "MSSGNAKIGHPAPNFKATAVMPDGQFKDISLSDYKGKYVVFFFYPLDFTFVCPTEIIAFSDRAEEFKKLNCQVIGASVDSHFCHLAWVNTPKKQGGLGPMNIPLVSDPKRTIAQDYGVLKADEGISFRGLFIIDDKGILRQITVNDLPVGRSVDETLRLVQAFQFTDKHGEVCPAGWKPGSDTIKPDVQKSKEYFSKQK", "assay": "Prx assay coupled to Trx, TrxR and NADPH", "assay_type": "biochemical", "settings": "initial velocity", "experimental": "Prx activity in the buffer control (Apo-Prx) and the Tavocept-treated sample (Prx-mesna) was determined using the Prx assay outlined in FIG. 58. A typical assay mixture was 150 μL in final volume and contained HEPES Buffer (45 mM, pH 7.0, 1 mM EDTA), 350 μM NADPH, 0.12 μM rat liver TrxR, 80 μM insulin, 2.9 μM human Trx 1, and Prx (4.8 or 2.4 μM per assay). Assays were initiated by the addition of H2O2 (100 μM) and were monitored at 340 nm at 25° C. for 30 minutes using a using a Molecular Devices SpectraMax Plus UV/vis plate reader. Activity was calculated using a 4 minute linear portion of each assay and then this rate was converted into percent of control with the buffer treated Prx 1 reaction (Apo-Prx) serving as a 100% control. See, FIG. 59. […] This reduction in rate is approximately 43% in assays containing 2.4 μM Prx and 23% in assays containing 4.8 μM Prx. See, FIG. 59. […] Therefore, as the concentration of unmodified Prx increases, the turnover more nearly approaches the buffer control Apo-Prx samples."}, "T790M EGFR kinase": {"target": "T790M EGFR kinase (Homo sapiens, UniProt P00533, T790M)", "sequence (P00533 25-1210 T790M)": "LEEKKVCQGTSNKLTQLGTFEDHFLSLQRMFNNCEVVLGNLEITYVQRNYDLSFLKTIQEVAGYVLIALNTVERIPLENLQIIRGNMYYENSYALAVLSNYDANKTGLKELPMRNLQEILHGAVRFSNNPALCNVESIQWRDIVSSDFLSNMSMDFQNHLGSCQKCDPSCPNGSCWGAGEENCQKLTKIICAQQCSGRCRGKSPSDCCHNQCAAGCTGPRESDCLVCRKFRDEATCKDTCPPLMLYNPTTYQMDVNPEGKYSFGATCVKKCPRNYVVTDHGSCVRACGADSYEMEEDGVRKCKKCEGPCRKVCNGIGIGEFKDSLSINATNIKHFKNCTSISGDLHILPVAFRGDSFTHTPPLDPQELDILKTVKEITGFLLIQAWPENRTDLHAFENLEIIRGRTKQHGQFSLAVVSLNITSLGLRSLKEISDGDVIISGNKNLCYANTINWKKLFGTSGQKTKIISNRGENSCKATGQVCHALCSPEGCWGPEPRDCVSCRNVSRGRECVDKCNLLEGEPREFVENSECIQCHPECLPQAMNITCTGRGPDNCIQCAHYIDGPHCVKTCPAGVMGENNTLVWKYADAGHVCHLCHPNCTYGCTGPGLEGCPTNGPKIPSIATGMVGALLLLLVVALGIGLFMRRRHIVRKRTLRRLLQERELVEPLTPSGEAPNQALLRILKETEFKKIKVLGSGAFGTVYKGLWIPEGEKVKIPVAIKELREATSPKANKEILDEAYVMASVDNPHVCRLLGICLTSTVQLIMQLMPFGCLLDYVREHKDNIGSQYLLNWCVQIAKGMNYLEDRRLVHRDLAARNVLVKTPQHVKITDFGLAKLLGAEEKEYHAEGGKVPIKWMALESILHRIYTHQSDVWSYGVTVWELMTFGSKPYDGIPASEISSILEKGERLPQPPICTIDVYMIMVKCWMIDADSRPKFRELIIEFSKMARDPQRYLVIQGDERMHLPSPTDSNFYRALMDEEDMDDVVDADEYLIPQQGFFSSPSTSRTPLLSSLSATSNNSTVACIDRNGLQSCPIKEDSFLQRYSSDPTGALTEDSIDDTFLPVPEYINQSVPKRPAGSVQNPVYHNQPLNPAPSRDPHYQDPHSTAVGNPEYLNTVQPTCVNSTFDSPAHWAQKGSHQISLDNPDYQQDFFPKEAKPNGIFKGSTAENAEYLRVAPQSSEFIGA", "assay": "EGFR kinase assay (ADP-glo, polyGT substrate), T790M mutant", "assay_type": "biochemical"}, "[1]": {"tested_on": "human breast, ovarian and lymphoma cancer cell lines", "assay": "Paclitaxel induced apoptosis (PARP cleavage, Bcl-2 phosphorylation, DNA laddering)", "assay_type": "cell-based", "description": "Tavocept mediates the non-enzymatic xenobiotic modification of sulfur-containing amino acid residues (e.g., cysteine) on proteins. As an engineered, non-naturally occurring agent (i.e., xenobiotic), Tavocept is autocatalytic and requires no protein cofactor to cause the xenobiotic modification of cysteine, but appears to be specific for cysteine residues located within a particular structural context (i.e., not all cysteines in a protein are so modified). Tavocept-mediated, xenobiotic modification represents a novel mechanism of action for a cancer treating agent and can be compared to a degree with post-translational modifications of cysteine residues in proteins (see, Table 3, below)."}},
  "data": [
    {"smiles": "O=S(=O)([O-])CCSSCCS(=O)(=O)[O-].[Na+].[Na+]", "note": "[Tavocept, disodium 2,2′-dithio-bis-ethane sulfonate]", "values": [
      {"measurement": "activity of Tavocept-modified Prx versus Apo-Prx", "setting": "recombinant human Prx 1", "result": "less active"},
      {"measurement": "inhibition of T790M EGFR kinase", "setting": "T790M EGFR kinase; 10 μM or 100 μM ATP, physiological concentrations (<20 mM) of Tavocept", "result": "did not notably inhibit"},
      {"measurement": "inhibitory activity on T790M EGFR kinase activity", "setting": "T790M EGFR kinase; Tavocept alone, 10 μM ATP", "result": "essentially no inhibitory activity"},
      {"measurement": "effect on Erlotinib inhibition of T790M EGFR kinase", "setting": "T790M EGFR kinase; Tavocept in combination with Erlotinib, 10 μM ATP", "result": "strongly potentiated"},
      {"measurement": "interference with paclitaxel induced apoptosis", "setting": "[1]", "result": "does not interfere"}
    ]}
  ]
}
